The source made the active and inactive calls. How the calls were made is not given here.
Each compound was assayed against Regulator of G-protein signaling 16 (Homo sapiens) (UniProt O15492) (assay: small molecules altering RGS16 binding to Galphao – biochemical, bead-based flow cytometry, multiplex, dose response (AID 1888)). Details: not given.
Sequence of Regulator of G-protein signaling 16 (Homo sapiens) (O15492 whole entry, looked up): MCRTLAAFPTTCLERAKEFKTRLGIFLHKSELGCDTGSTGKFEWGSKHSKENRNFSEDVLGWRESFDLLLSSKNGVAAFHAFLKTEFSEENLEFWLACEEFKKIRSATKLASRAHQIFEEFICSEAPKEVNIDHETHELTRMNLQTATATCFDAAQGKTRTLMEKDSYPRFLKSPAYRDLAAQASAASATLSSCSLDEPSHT
`CCOC(=O)/C(C(=O)Nc1ccccc1Cl)=C1/NC(C)(C)Cc2ccccc21` was tested, and the EC50 was “inactive”. For `CC(C)Sc1nc2ccc(N3C(=O)C4CCCCC4C3=O)cc2s1` (configuration not stated), the EC50 was > 30 µM (inactive). Work on `CN(C)[C@@H]1C(=O)C(C(=O)NCN2CCCC2)=C(O)[C@@]2(O)C(=O)C3=C(O)c4c(O)cccc4[C@@](C)(O)C3CC12` (some centres not stated) yielded an EC50 of 7.31 µM. `O=C1CCCC2=C1C(c1cccs1)n1ncnc1N2` (configuration not stated) was tested, and the EC50 was > 30 µM (inactive). In the case of `CCOC(=O)C1=C(C)NC(C)=C(C(=O)OCCNC(=O)c2cccnc2)C1c1cccc([N+](=O)[O-])c1` (configuration not stated), the EC50 is reported as > 30 µM (inactive). In the case of `CCOC(=O)N=Nc1c(O)n(C)c2ccccc12`, the EC50 is reported as > 30 µM (inactive). With `NS(=O)(=O)c1ccc(N/N=C/c2ccc(O)c(O)c2O)c([N+](=O)[O-])c1` the EC50 was 1.66 µM. For `O=c1[nH]c(=S)n(Cc2ccco2)c(O)c1C=NCc1cccs1`, the EC50 was > 30 µM (inactive). `COc1ccc(Br)cc1/C=N/Nc1cccc(C(=O)O)c1` was tested, and the EC50 was > 30 µM (inactive).

Same assay, conditions: measured here: Ki for RGS16-Galphao binding
`CC1(C)OC(=O)C(=Cc2ccc(-c3ccc(S(N)(=O)=O)cc3)o2)C(=O)O1` showed a Ki of 9.64 µM. In the case of `CCN(CC)S(=O)(=O)c1cccc(C(=O)N/N=C/c2ccc(O)c(O)c2O)c1`, the Ki is reported as 4.14 µM. With `Cc1ccc(NC(=O)Cn2sc3nc(C)cc(C)c3c2=O)c(Cl)c1` the Ki was 0.71 µM. In the case of `Cc1ccccc1-n1c(-c2ccncc2)n[nH]c1=S`, the Ki is reported as 6.29 µM. `CCN1/C(=C/C=C/C=C/c2sc3ccccc3[n+]2CC)Sc2ccccc21` was tested, and the Ki was 5.41 µM. Compound `CC(NC(=O)c1sc2cc([N+](=O)[O-])ccc2c1Cl)C(C)(C)C` (configuration not stated) has a Ki of 2 µM. For `Cc1[nH]n(-c2ccccc2)c(=S)c1C=Nc1cccc([N+](=O)[O-])c1`, the Ki was 1.29 µM. `CCCNC(=O)Cn1sc2nc(C)cc(C)c2c1=O` gave a Ki of 1.42 µM. For `O=[N+]([O-])c1ccc(Sc2cccc[n+]2[O-])c2nonc12`, the Ki was 1.07 µM. With `Cc1cccc(N2CCN(C(=O)Cn3sc4nc(C)cc(C)c4c3=O)CC2C)c1` (configuration not stated) the Ki was 1.05 µM. In the case of `CC(=O)OCCCNc1cc(Sc2nc3ccccc3s2)c2nonc2c1[N+](=O)[O-]`, the Ki is reported as 8.45 µM. For `CN(C)c1ncc(C2=C(Cl)C(=O)C(N3CCCC3)=C(Cl)C2=O)s1`, the Ki was 4.05 µM. With `CCN=c1scc(C)n1/N=C/c1ccc(O)c(O)c1O` the Ki was 15.1 µM. `CN(C)[C@@H]1C(=O)C(C(=O)NCN2CCCC2)=C(O)[C@@]2(O)C(=O)C3=C(O)c4c(O)cccc4[C@@](C)(O)C3CC12` (some centres not stated) was tested, and the Ki was 5.93 µM. For `CCOC(=O)C1CCCN(C(=O)Cn2sc3nc(C)cc(C)c3c2=O)C1` (configuration not stated), the Ki was 1.53 µM. `Cc1cc(C)c2c(=O)n(CC(=O)Nc3ccc(Cl)cc3)sc2n1` showed a Ki of 1.42 µM. `O=C(COc1ccccc1C(=O)N/N=C\c1ccc(O)c(O)c1)N/N=C/c1ccc(O)c(O)c1` showed a Ki of 3.24 µM. Compound `O=C(O[C@@H]1OC2COC(=O)c3cc(O)c(O)c(O)c3-c3c(cc(O)c(O)c3O)C(=O)O[C@@H]([C@H]1O)[C@@H]2O)c1cc(O)c(O)c(O)c1` has a Ki of 5.42 µM. Work on `O=C1C(Cl)=C(N2CCCCC2)C(=O)C(Cl)=C1c1cnc(N2CCCCC2)s1` yielded a Ki of 1.34 µM. Work on `COCCCNC(=O)c1ccc2c3c(onc13)-c1ccccc1C2=O` yielded a Ki of 4.61 µM. Work on `COc1ccc(C2=CC(=O)C=CC2=O)cc1` yielded a Ki of 3 µM. `O=C(Cc1csc(N2CCOCC2)n1)N/N=C/c1ccc(O)c(O)c1O` showed a Ki of 9.08 µM. With `O=c1c2ccccc2sn1-c1ccc(S(=O)(=O)N2CCCC2)cc1` the Ki was 1.94 µM. In the case of `O=C1CCC(=O)N(O)CCCCCNC(=O)CCC(=O)N(O)CCCCCNC(=O)CCC(=O)N(O)CCCCCN1`, the Ki is reported as 1.82 µM. For `O=c1c2ccccc2sn1-c1cc(S(=O)(=O)N2CCOCC2)ccc1N1CCOCC1`, the Ki was 0.56 µM. With `CN=c1scc(C)n1/N=C/c1ccc(O)c(O)c1O` the Ki was 7.14 µM. Compound `CCN1/C(=C/C(C)=C/c2sc3ccccc3[n+]2CC)Sc2ccccc21` has a Ki of 7.85 µM. In the case of `CN(C)S(=O)(=O)c1cccc(-n2sc3ccccc3c2=O)c1`, the Ki is reported as 1.24 µM. `CCC(=O)NC1=C(Cl)C(=O)C(NC(=O)CC)=C(Cl)C1=O` showed a Ki of 0.68 µM. Work on `O=C1OCC2OC(O)C(O)C(O)C2OC(=O)c2cc(O)c(O)c(O)c2-c2c(O)c(O)c3oc(=O)c4c(c(O)c(O)c5oc(=O)c2c3c54)-c2c1cc(O)c(O)c2O` (configuration not stated) yielded a Ki of 13.4 µM. For `CC(=O)N(O)CCCCCNC(=O)CCC(=O)N(O)CCCCCNC(=O)CCC(=O)N(O)CCCCCN`, the Ki was 1.5 µM. `COc1ccc(OC)c(CCNC(=O)Cn2sc3nc(C)cc(C)c3c2=O)c1` gave a Ki of 1.43 µM. In the case of `C/C(=N/NC(=O)c1cc(O)c(O)c(O)c1)c1ccc([N+](=O)[O-])cc1`, the Ki is reported as 15.8 µM. In the case of `NS(=O)(=O)c1ccc(CNC(=O)/C=C/c2ccco2)cc1`, the Ki is reported as 6.22 µM. `CCOc1ccccc1-c1c2cc(O)c(=O)cc-2oc2cc(O)c(O)cc12` showed a Ki of 11.3 µM. Compound `Nc1c(C(=O)NCC2CCCO2)sc2nc3c(c(-c4ccco4)c12)CC/C3=C\c1ccco1` (configuration not stated) has a Ki of 2.21 µM. In the case of `NS(=O)(=O)c1ccc(N/N=C/c2ccc(O)c(O)c2O)c([N+](=O)[O-])c1`, the Ki is reported as 1.35 µM. `CN1CCN(C2=C(Cl)C(=O)C(c3cnc(N4CCCCC4)s3)=C(Cl)C2=O)CC1` was tested, and the Ki was 0.15 µM. Compound `Cc1[nH]n(-c2ccccc2)c(=S)c1C=NCCCN=Cc1c(C)[nH]n(-c2ccccc2)c1=S` has a Ki of 7.13 µM. For `COC(=O)CCC(=O)Nc1sc(C)c(C)c1C(N)=O`, the Ki was 5.32 µM. `Cc1ccccc1-n1sc2cc(F)ccc2c1=O` was tested, and the Ki was 13 µM. `Cc1cc(C)c2c(=O)n(CC(=O)Nc3cccc(F)c3)sc2n1` was tested, and the Ki was 1.39 µM. In the case of `Cc1cc(Cl)ccc1N=c1ssnc1Cl`, the Ki is reported as 7.19 µM. Compound `O=C(OCC1O[C@@H](OC(=O)c2cc(O)c(O)c(O)c2)[C@@H](OC(=O)c2cc(O)c(O)c(O)c2)[C@@H](OC(=O)c2cc(O)c(O)c(O)c2)[C@@H]1OC(=O)c1cc(O)c(O)c(O)c1)c1cc(O)c(O)c(O)c1` (some centres not stated) has a Ki of 4.68 µM. `Cc1ccc(-n2sc3ccccc3c2=O)cc1S(=O)(=O)N1CCCCC1` was tested, and the Ki was 1.62 µM. With `O=C(O)C[C@@H]1C(=O)O[C@@H]2C(COC(=O)c3cc(O)c(O)c(O)c3)O[C@@H](OC(=O)c3cc(O)c(O)c(O)c3)[C@@H](OC(=O)c3cc(O)c(O)c4c3[C@H]1[C@H](O)C(=O)O4)[C@H]2OC(=O)c1cc(O)c(O)c(O)c1` (some centres not stated) the Ki was 1.36 µM. `O=C(NCCCN1CCOCC1)c1sc2cc([N+](=O)[O-])ccc2c1Cl` was tested, and the Ki was 0.77 µM. `CCNc1ccc2noc3c2c1C(=O)c1ccccc1-3` gave a Ki of 23.7 µM. For `CCOC(=O)c1sc(NC(=O)CSc2nnc(Cc3ccccc3)o2)c(C#N)c1C`, the Ki was 10.9 µM. For `O=c1c2ccccc2sn1-c1ccccc1`, the Ki was 1.37 µM. `O=c1c2ccccc2sn1-c1cc(S(=O)(=O)N2CCOCC2)ccc1N1CCCC1` gave a Ki of 1.83 µM. Compound `CC(=O)N1CC[n+]2c(-c3ccc([N+](=O)[O-])cc3)csc21` has a Ki of 11 µM. `CCC(=O)NC(c1ccc(C)cc1)c1cc([N+](=O)[O-])c2cccnc2c1O` (configuration not stated) showed a Ki of 9.46 µM.
